The source made the active and inactive calls.
What was measured:
Assay type in all cases: functional, organism-based
Rattus norvegicus [1] = species on record: Rattus norvegicus; test: Vasorelaxant activity against norepinephrine-induced contraction of rat thoracic aortic ring with endothelium; conditions: Aorta
Rattus norvegicus [2] = species on record: Rattus norvegicus; test: Inhibition of potassium ion depolarized calcium-induced contraction of rat aorta mediated by voltage dependent calcium channel at 10 uM
Rattus norvegicus [3] = species on record: Rattus norvegicus; test: Vasorelaxant activity against norepinephrine-induced contraction of rat thoracic aortic ring without endothelium; conditions: Aorta
Rattus norvegicus [4] = species on record: Rattus norvegicus; test: Inhibition of norepinephrine-induced contraction in rat aorta mediated by receptor operated calcium channel in presence of nicardipine at 10 uM

Measured: Activity

CC[C@@H](C)[C@@H]1NC(=O)[C@@H]2CCCN2C(=O)[C@@H]2CCCN2C(=O)[C@H](CCC(N)=O)NC(=O)[C@H](CCSC)NC(=O)[C@H](CC(C)C)NC(=O)CN(C)C(=O)[C@H]([C@H](C)O)NC1=O
active: all assays above

Reference: ChEMBL document CHEMBL1149339, “Vasorelaxant activity of cyclic peptide, cyclosquamosin B, from Annona squamosa” (Bioorg Med Chem Lett, 2006)
